Laboratory results published in paper PMC5601625, “Defining a therapeutic window for kinase inhibitors in leukemia to avoid neutropenia” (Oncotarget, 2017).

Tests used:
[1] = test system: primary murine bone-marrow neutrophils; assay: Live cell imaging viability of primary bone-marrow neutrophils; conditions: for effect on mouse neutrophil viability (words): G-CSF- or GM-CSF-primed, inhibitors at 1 μM, over 24 hours
Text: Using a high-throughput live cell imaging approach reported previously [15], we examined the effect of the kinase inhibitors on the viability of bone marrow neutrophils to determine their potential to cause neutropenia (Figure 2). Because G-CSF and GM-CSF are dominant regulators of granulopoiesis and neutrophil survival, and are commonly used in a clinical setting to mobilize hematopoietic stem cells into the blood and increase neutrophil production [27–31], we treated cells with these cytokines immediately prior to drug exposure. The addition of either cytokine prevents constitutive neutrophil apoptosis thereby increasing the window for detection of changes in viability induced by drug treatments.
For all above, data represent mean ± SEM from three independent samples.
Mouse bone marrow neutrophils were prepared as described [15]. Neutrophils were resuspended in phenol red-free DMEM/10% FBS for imaging studies. The purity of neutrophil preparations was routinely 96% ± 4% (Mean ± SD, n = 50) as assessed by cytology following May-Grünwald/Giemsa staining.
Kinase inhibitors were purchased from SYN kinase (Melbourne, Australia) and were used at 1 μM, unless otherwise specified, with dilutions performed in assay buffer containing 0.1% DMSO.
Viability was monitored using 2 μg/mL PI (Sigma). Images were captured every 30-60 min by the Zeiss Axiovert 200M Microscope at 37 °C/10% CO2. Quantitative analysis was performed using a custom-scripted MetaMorph (Molecular Devices) journal suite incorporating the count nuclei function, reconstruction & subtraction functions and Integrated Morphometry Analysis to select and analyze cells of interest.

K562 = assay: Cell Titer Glo cell viability assay, 48 h; type: cell-based, human; conditions: Homo sapiens; 48 h; mean of 2 independent experiments; 0 = less than 10 nM, cell line not given; read-out: IC50 of inhibitors on cell lines, m (mean)
Experimental: (§1) The activity of the kinase inhibitor collection against a panel of human leukemia cell lines was determined in cell viability assays run over 48 h using the Cell Titer Glo reagent.
(§2) Figure 1 Effects of kinase inhibition on the proliferation of leukemia cells A. Human leukemia cell lines were treated with duplicate serial dilutions of kinase inhibitors and the effect on cell viability was determined by Cell Titer Glo assay after 48 hours. […] HL-60 cells were treated with serial dilutions of mTor/PI3K B. and MEK C. inhibitors and the effect on cell viability was determined after 48 hours. Data shown is the mean ± SEM of 3 independent experiments.
(§3) Leukemia and lymphoma cell lines were grown in RPMI containing 10% FCS. […] Cell lines are routinely tested for mycoplasma and genotyped by short tandem repeating (STR) profiling to confirm identity.
(§4) Compounds were obtained from SynMedChem and dissolved at […] in DMSO. Serial 2-fold dilutions of each compound were prepared in DMSO using a liquid handling robot (Janus, Perkin Elmer). Each dilution (100nL) was transferred to duplicate tissue culture plates containing 50 μL of media containing 5 × 10^3 cells using a 384 well pin tool. Cells were incubated for 48 h and cell viability was determined using Cell Titer Glow reagents as described by the manufacturer (Promega). Data was acquired using a luminescent plate reader (Envision, Perkin Elmer) and analysed using Activity Base (IDBS, Guilford, UK) and visualised using Spotfire (TIBCO, Palo Alto, CA) as described previously. Each cell line was assayed in independent experiments on at least two occasions. […] Serial 2-fold dilutions of each compound were prepared in media containing 0.2% DMSO and 50 μl of each dilution was added to 10^4 cells in 50 μl of media. Cells were incubated for 48 h and cell viability was determined using Cell Titer Glow assay as described above.

HL-60 = assay: Cell Titer Glo cell viability assay, 48 h; type: cell-based, human; conditions: Homo sapiens; 48 h; mean of 2 independent experiments; 0 = less than 10 nM, cell line not given; read-out: IC50 of inhibitors on cell lines, m (mean)
Experimental: as §1, §2, §3, §4

EOL-1 = assay: Cell Titer Glo cell viability assay, 48 h; type: cell-based, human; conditions: Homo sapiens, EOL1; 48 h; mean of 2 independent experiments; 0 = less than 10 nM, cell line not given; read-out: IC50 of inhibitors on cell lines, m (mean)
Experimental: as §1, §2, §3, §4

HEL.92.1.7 = assay: Cell Titer Glo cell viability assay, 48 h; type: cell-based, human; conditions: Homo sapiens; 48 h; mean of 2 independent experiments; 0 = less than 10 nM, cell line not given; read-out: IC50 of inhibitors on cell lines, m (mean)
Experimental: as §1, §2, §3, §4

MOLT4 = assay: Cell Titer Glo cell viability assay, 48 h; type: cell-based, human; conditions: Homo sapiens, MOLT-4; 48 h; mean of 2 independent experiments; 0 = less than 10 nM, cell line not given; read-out: IC50 of inhibitors on cell lines, m (mean)
Experimental: as §1, §2, §3, §4

KU-812 = assay: Cell Titer Glo cell viability assay, 48 h; type: cell-based, human; conditions: Homo sapiens, KU812; 48 h; mean of 2 independent experiments; 0 = less than 10 nM, cell line not given; read-out: IC50 of inhibitors on cell lines, m (mean)
Experimental: as §1, §2, §3, §4

U937 = assay: Cell Titer Glo cell viability assay, 48 h; type: cell-based, human; conditions: Homo sapiens, U-937; 48 h; mean of 2 independent experiments; 0 = less than 10 nM, cell line not given; read-out: IC50 of inhibitors on cell lines, m (mean)
Experimental: as §1, §2, §3, §4

THP-1 = assay: Cell Titer Glo cell viability assay, 48 h; type: cell-based, human; conditions: Homo sapiens; 48 h; mean of 2 independent experiments; 0 = less than 10 nM, cell line not given; read-out: IC50 of inhibitors on cell lines, m (mean)
Experimental: as §1, §2, §3, §4

JURKAT = assay: Cell Titer Glo cell viability assay, 48 h; type: cell-based, human; conditions: Homo sapiens; 48 h; mean of 2 independent experiments; 0 = less than 10 nM, cell line not given; read-out: IC50 of inhibitors on cell lines, m (mean)
Experimental: as §1, §2, §3, §4

MEG-01 = assay: Cell Titer Glo cell viability assay, 48 h; type: cell-based, human; conditions: Homo sapiens; 48 h; mean of 2 independent experiments; 0 = less than 10 nM, cell line not given; read-out: IC50 of inhibitors on cell lines, m (mean)
Experimental: as §1, §2, §3, §4

OCI-AML3 = assay: Cell Titer Glo cell viability assay, 48 h; type: cell-based, human; conditions: Homo sapiens, OCI-AML-3; 48 h; mean of 2 independent experiments; 0 = less than 10 nM, cell line not given; read-out: IC50 of inhibitors on cell lines, m (mean)
Experimental: as §1, §2, §3, §4

MV4;11 = assay: Cell Titer Glo cell viability assay, 48 h; type: cell-based, human; conditions: Homo sapiens; 48 h; mean of 2 independent experiments; 0 = less than 10 nM, cell line not given; read-out: IC50 of inhibitors on cell lines, m (mean)
Experimental: as §1, §2, §3, §4

IC50 (K562) | IC50 (HL-60) | IC50 (MOLT4) | IC50 (U937) | IC50 (THP-1) | IC50 (JURKAT) | IC50 (OCI-AML3) | IC50 (MV4;11) | Compound | effect on mouse neutrophil viability (words) [1] | effect on mouse neutrophil viability (words) ([1]; listed as AT-9283) | effect on mouse neutrophil viability (words) ([1]; listed as AZD-1480) | effect of chemotherapeutics on neutrophil viability ([1]; GM-CSF-primed, dose-dependent, Figure 5D) | IC50 (EOL-1) | IC50 (HEL.92.1.7) | IC50 (KU-812) | IC50 (MEG-01)
– | – | – | – | – | – | – | – | N#CCNC(=O)c1ccc(-c2ccnc(Nc3ccc(N4CCOCC4)cc3)n2)cc1 [CYT387] | did not | – | – | – | – | – | – | –
– | – | – | – | – | – | – | – | O=C(Nc1c[nH]nc1-c1nc2cc(CN3CCOCC3)ccc2[nH]1)NC1CC1 [AT9283] | significantly affected neutrophil viability | cytotoxicity | – | – | – | – | – | –
– | – | – | – | – | – | – | – | C[C@@H]1CCN(C(=O)CC#N)C[C@@H]1N(C)c1ncnc2[nH]ccc12 [CP690550] | did not | – | – | – | – | – | – | –
– | – | – | – | – | – | – | – | Cc1cc(Nc2nc(N[C@@H](C)c3ncc(F)cn3)ncc2Cl)n[nH]1 [AZD1480] | significantly affected neutrophil viability | – | cytotoxicity | – | – | – | – | –
– | – | – | – | – | – | – | – | Cc1cnc(Nc2ccc(OCCN3CCCC3)cc2)nc1Nc1cccc(S(=O)(=O)NC(C)(C)C)c1 [TG-101348] | cytotoxicity | – | – | – | – | – | – | –
– | – | – | – | – | – | – | – | CCc1c2c(nc3ccc(O)cc13)-c1cc3c(c(=O)n1C2)COC(=O)[C@]3(O)CC [SN-38] | – | – | – | potently decreased neutrophil viability | – | – | – | –
> 10 µM | > 10 µM | > 10 µM | > 10 µM | > 10 µM | > 10 µM | > 10 µM | 9.13 µM | CC(C)[C@H](CO)Nc1nc(Nc2ccc(C(=O)O)c(Cl)c2)c2ncn(C(C)C)c2n1 [Purvalanol B] | – | – | – | – | > 10 µM | > 10 µM | > 10 µM | > 10 µM
4.06 µM | 1.41 µM | 5.93 µM | 3.42 µM | 3.31 µM | 3.76 µM | 2.71 µM | 2.59 µM | CN(C)CCOc1ccc(-c2nc(-c3ccncc3)c(-c3ccc4c(c3)CC/C4=N\O)[nH]2)cc1 [SB590885] | – | – | – | – | 1.3 µM | 5.26 µM | 5.01 µM | 5.04 µM
8.85 µM | 7.58 µM | 9.77 µM | 7.44 µM | 7.42 µM | 4.38 µM | 4.87 µM | 0.08 µM | COc1cc2c(N3CCN(C(=O)Nc4ccc(OC(C)C)cc4)CC3)ncnc2cc1OCCCN1CCCCC1 [Tandutinib] | – | – | – | – | 0.02 µM | > 10 µM | 6.6 µM | 7.91 µM
> 10 µM | 9.1 µM | > 10 µM | 5.96 µM | > 10 µM | > 10 µM | > 10 µM | 2.64 µM | CN(C)CCOc1cc(-c2cn[nH]c2)ccc1NC(=O)C1COc2ccccc2O1 (centres unmarked) [SR3677] | – | – | – | – | 0.75 µM | > 10 µM | 1.53 µM | 8.05 µM
7.41 µM | > 10 µM | > 10 µM | 4.11 µM | > 10 µM | 9.58 µM | > 10 µM | 7.8 µM | CCc1nc(-c2cccc(C)c2)c(-c2ccnc(NC(=O)c3ccccc3)c2)s1 [TAK-715] | – | – | – | – | 2.33 µM | > 10 µM | 6.14 µM | 7.37 µM
